Source: publication PMC9029618, “Attenuation of Scopolamine-Induced Amnesia via Cholinergic Modulation in Mice by Synthetic Curcumin Analogs” (Molecules, 2022)
Read-outs that look alike come from different tables or passages of the source.

What was measured:
AChE = target: T1, AChE (Electrophorus electricus, UniProt O42275); test: biochemical
T1 construct: The enzymes AChE and BuChE were obtained from electric eel and equine serum, respectively; from tissue; host or cells: electric eel
Description: (§1) The in vitro cholinesterase assay of the synthesized curcumin analogs were carried out according to the Ellman’s method with slight modification. The enzymes AChE and BuChE were obtained from electric eel and equine serum, respectively. […] The final concentrations of AChE 0.03 U/mL and 0.01 U/mL of BuChE were achieved. […] The experiment was started by adding 5 µL enzyme solutions to cuvette, then 205 µL test sample and 5 µL DTNB reagents were added. Substrate solution (5 µL) was added, and the solution mixture was kept in a water bath for 15 min at 30 °C.

BuChE = target: T2, BuChE (Equus caballus, UniProt P81908); test: biochemical
T2 construct: The enzymes AChE and BuChE were obtained from electric eel and equine serum, respectively; from tissue; host or cells: equine serum
Description: as §1

[1] = test system: scopolamine-induced amnesic mice; test: Elevated plus maze (EPM), scopolamine-induced amnesia; assay type: in vivo
Excerpt: Elevated plus maze paradigm is an important behavioral model for evaluation of anti-amnesic potentials in mice. This apparatus comprised of two open and two closed arms with dimensions of 16 cm × 5 cm × 12 cm and elevated 25 cm from the floor on a wooden stand. The EPM was designed in plus shape from two acrylic sheets having a central platform with dimensions of 5 cm × 5 cm. Initially, mice were placed in one of the open arms in such a way that it was directed away from the central platform. Then TLT was recorded after the mice moved to the closed arm, with their four legs from the open arm and then the mice were returned to their home cage. The time of exploration of the apparatus for each animal was 90 s. […] Reduction of TLT indicated memory-enhancing effect of the test samples. The inflexion ratio (IR) was calculated as: IR=L0−L1/L0 where L1 presents the initial transfer latency (s), and L0 is the retention transfer latency (s).

[2] = test system: scopolamine-induced amnesic mice; test: Novel object recognition test (NORT), scopolamine-induced amnesia; assay type: in vivo
Description: In this study, the memory-enhancing potentials of synthesized compounds were determined using novel object recognition test mice model. Dimensions of the apparatus were 40 cm × 40 cm × 30 cm and designed from Plexiglass in a box shape. After acclimatization, the mice were habituated with the apparatus for 2–3 min one day before the test. Initially, in the sample phase, two identical objects were placed in the two corners of the apparatus and the mice were allowed to freely explore the apparatus. The objects in the apparatus were explored by each animal either by touching the objects or keeping their noses within 2 cm of them. […] Mice were allowed again to freely explore both the objects in a similar way as in sample phase, and the time spent by each animal exploring the novel and familiar object (F) was recorded.
The following formula was used for calculation of discrimination index. D1=N—F /N+F
D1 = discrimination index; N = novel object; F = familiar object

[3] = test system: scopolamine-induced amnesic mice; test: Y-maze test, scopolamine-induced amnesia
Description: A total of sixteen groups of mice, with six in each group, were used in the experiment. Vehicle treated group (Normal control group) were administered 10 mL/kg (p.o) of normal saline. […] Sample treatment groups were administered 7.5 mg/kg and 15 mg/kg (p.o) of synthesized compounds, respectively.
The dimensions of the arms were 15.5 cm high, 6 cm wide, 20 cm long and connected with each other with an angle of 120°. This test was conducted for a 5 min duration for each animal. The order and number of arm entries made by each animal after placing in one arm were recorded. Complete arm entry in any given arm was considered to be when the hind paws were completely inside, and the alternation was the consecutive arm entries into three different arms by each mouse. Ethanol 70% v/v solution was used to clean the Y-maze arena to avoid olfactory cues between each test. […] Mice were freely allowed to explore the objects when they were initially placed at the center of the apparatus. The formula was used to calculate the %SAP by recording the same arm returns (SAR), alternate arm returns (AAR) and the number of arm entries.

[4] = target: T3, AChE activity in the hippocampi of mice brains (Mus musculus, UniProt P21836); assay type: in vivo; conditions: ex vivo, vs scopolamine treated group, n = 6
T3 construct: from tissue; host or cells: mouse bilateral hippocampus homogenate, supernatant
T3 sequence (P21836 32-614): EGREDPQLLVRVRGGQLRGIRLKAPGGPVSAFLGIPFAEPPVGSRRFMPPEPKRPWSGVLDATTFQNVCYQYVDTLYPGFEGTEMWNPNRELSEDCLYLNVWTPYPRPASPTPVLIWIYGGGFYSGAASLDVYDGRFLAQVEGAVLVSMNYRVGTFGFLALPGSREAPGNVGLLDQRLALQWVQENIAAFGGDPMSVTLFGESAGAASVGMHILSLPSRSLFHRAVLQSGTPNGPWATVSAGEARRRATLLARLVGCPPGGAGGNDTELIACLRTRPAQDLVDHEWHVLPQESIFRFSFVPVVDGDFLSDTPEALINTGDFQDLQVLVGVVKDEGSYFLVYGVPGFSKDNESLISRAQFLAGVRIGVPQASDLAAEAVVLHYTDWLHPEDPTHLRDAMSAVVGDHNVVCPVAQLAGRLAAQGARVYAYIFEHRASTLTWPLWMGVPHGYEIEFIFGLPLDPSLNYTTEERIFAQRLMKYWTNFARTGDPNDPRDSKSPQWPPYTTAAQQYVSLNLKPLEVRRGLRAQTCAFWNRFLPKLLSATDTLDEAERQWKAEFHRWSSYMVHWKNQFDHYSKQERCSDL
Description: (§2) After the behavioral study, the mice were sacrificed by decapitation, providing a quick and painless death by cervical dislocation. The isolated brain of each animal in chilled phosphate buffer saline was subjected into biomarker assays using AChE and BuChE enzymes.
Mice were sacrificed within 24 h of the behavior study; brains were dissected and stored at −80 °C. […] Supernatant was used for the measurement of cholinesterase (AChE and BuChE) activity.
Acetylcholine/Acetyl cholinesterase assay Kit was used for the determination of AChE activity, according to the standard procedure. The assay was carried out using 96-well plate, and every reaction comprised of 100 µL sample, 200 µM Amplex Red reagent, 50 µM of acetylcholine, 1 U/mL horseradish peroxidase (HRP) and 0.1 U/mL choline oxidase in buffer solution. Incubation period for the reaction mixture was 20 min at room temperature in the dark. The fluorescence intensity at 560 nm excitation and 580 nm emission wavelength was measured.

[5] = target: T4, BuChE activity in the hippocampi of mice brains (Mus musculus, UniProt Q03311); test: Ex vivo BuChE activity in the brain hippocampus; conditions: vs scopolamine treated group, n = 6
T4 construct: from tissue; host or cells: mouse bilateral hippocampus homogenate, supernatant
Description: as §2
Mice were sacrificed within 24 h of the behavior study; brains were dissected and stored at −80 °C. The bilateral hippocampus was homogenized before the assay into volumes of 0.01 M phosphate buffer (2.7 mM KCl, 137 mM NaCl, 2 mM KH2PO4, 10 mM Na2HPO4) and centrifuged at 4 °C for 30 min at 12,000× g. Supernatant was used for the measurement of cholinesterase (AChE and BuChE) activity.
Butyrylcholinesterase (BuChE) activity of the synthesized compounds were measured according to Ellman method with slight modification. BuSCh was hydrolyzed by BuChE and choline iodide produced, which reacted with DNTB, and then the production of TNB. The TNB was quantitated by calorimetry that indicated the BuChE activity. BuChE assay was accomplished in 96-well plate and every reaction mixture contained 40 µL sample, 80 µL DTNB (0.25 mg/mL) and 70 µL BuSCh (7.5 mM). The absorbance was determined at 37 °C after incubation for 60 min.

[6] = AChE from electric eel, Ellman's method, n = 3, read-out: AChEI (IC50 (nM))
[7] = BuChE from equine serum, Ellman's method, n = 3, read-out: BuChEI (IC50 (nM))
[8] = 7.5 mg/kg p.o. 7 days, scopolamine 1 mg/kg i.p.
[9] = 15 mg/kg p.o. 7 days, scopolamine 1 mg/kg i.p.
[10] = long-term memory (after 24 h), 7.5 mg/kg
[11] = long-term memory (after 24 h), 15 mg/kg
[12] = short-term memory, donepezil 2 mg/kg
[13] = short-term memory, test phase, donepezil 2 mg/kg

T2 sequence (P81908 whole entry): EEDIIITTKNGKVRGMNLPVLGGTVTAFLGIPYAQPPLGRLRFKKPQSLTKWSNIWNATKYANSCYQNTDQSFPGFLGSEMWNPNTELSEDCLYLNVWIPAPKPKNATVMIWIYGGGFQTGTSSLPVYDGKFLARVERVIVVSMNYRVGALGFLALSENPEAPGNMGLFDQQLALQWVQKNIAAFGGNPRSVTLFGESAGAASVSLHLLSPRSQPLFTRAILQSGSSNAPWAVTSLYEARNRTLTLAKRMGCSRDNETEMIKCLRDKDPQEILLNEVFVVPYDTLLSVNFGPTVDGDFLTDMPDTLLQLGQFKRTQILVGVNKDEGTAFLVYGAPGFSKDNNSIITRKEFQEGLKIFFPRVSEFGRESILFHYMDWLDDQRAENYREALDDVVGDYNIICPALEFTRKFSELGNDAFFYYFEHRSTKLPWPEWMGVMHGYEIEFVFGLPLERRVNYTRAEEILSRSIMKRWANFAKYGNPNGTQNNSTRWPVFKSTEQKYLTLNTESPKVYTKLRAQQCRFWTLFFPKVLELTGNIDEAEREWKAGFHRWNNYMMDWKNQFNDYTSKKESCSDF
T1 sequence (O42275 24-633): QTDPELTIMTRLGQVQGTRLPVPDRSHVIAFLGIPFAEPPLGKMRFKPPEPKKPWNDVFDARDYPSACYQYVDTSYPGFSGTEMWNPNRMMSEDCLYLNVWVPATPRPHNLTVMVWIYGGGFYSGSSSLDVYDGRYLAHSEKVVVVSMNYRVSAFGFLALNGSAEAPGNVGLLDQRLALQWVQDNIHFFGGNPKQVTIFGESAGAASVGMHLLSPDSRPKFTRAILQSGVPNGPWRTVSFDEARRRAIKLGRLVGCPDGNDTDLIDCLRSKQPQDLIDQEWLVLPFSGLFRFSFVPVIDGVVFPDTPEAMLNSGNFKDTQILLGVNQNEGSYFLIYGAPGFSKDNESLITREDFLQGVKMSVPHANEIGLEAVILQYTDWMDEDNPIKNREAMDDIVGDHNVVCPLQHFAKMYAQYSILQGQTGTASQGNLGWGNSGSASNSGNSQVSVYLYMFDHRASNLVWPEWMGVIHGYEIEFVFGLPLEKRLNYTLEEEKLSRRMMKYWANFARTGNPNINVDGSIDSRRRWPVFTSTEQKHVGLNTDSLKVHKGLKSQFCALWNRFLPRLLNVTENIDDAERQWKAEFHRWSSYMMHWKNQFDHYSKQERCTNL
T4 sequence (Q03311 30-603): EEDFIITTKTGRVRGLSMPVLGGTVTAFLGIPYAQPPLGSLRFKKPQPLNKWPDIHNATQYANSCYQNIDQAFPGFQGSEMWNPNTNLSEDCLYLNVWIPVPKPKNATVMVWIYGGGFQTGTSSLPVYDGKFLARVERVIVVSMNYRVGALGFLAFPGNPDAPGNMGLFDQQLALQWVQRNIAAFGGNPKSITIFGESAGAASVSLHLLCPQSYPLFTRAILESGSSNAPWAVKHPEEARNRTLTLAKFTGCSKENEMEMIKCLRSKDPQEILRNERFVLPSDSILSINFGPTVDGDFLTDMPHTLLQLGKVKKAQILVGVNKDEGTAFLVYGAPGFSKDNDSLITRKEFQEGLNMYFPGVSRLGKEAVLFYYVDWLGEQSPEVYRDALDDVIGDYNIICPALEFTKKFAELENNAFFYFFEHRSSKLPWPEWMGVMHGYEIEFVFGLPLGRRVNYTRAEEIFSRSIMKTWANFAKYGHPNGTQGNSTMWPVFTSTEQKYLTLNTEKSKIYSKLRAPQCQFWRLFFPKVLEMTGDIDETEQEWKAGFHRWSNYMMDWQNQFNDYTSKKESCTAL

SMILES | IC50 (AChE; [6]) | IC50 (BuChE; [7]) | effect on TLT vs amnesic group [1, 8] | effect on TLT vs amnesic group [1, 9] | discrimination index (DI) [2, 10] | discrimination index (DI) [2, 11] | discrimination index (DI) ([2]; short-term memory, 7.5 mg/kg) | discrimination index (DI) ([2]; short-term memory, 15 mg/kg) | % spontaneous alternation performance (% SAP) [3, 8] | % spontaneous alternation performance (% SAP) [3, 9] | effect on scopolamine-increased AChE activity in hippocampus [4] | also measured
O=C(/C=C/c1ccccc1)CC(=O)/C=C/c1ccccc1 [Compound 1a, (1E,6E)-1,7-diphenylhepta-1,6-diene-3,5-dione] | 2620 nM | 5350 nM | non-significant | non-significant | no significant change | no significant change | 54.53% | 55.10% | poor response | poor response | – | –
Cc1ccc(/C=C/C(=O)CC(=O)/C=C/c2ccc(C)cc2)cc1 [Compound 1b, (1E,6E)-1,7-di-p-tolylhepta-1,6-diene-3,5-dione] | 734 nM | 2160 nM | non-significant | poor response | 52.45% | 53.61% | 55.68% | 57.47% | poor response | poor response | markedly reduced the increased activity of AChE | –
COc1ccc(/C=C/C(=O)CC(=O)/C=C/c2ccc(OC)cc2)cc1 [Compound 1c, (1E,6E)-1,7-bis(4-methoxyphenyl)hepta-1,6-diene-3,5-dione] | 467 nM | 1360 nM | reduced TLT | reduced TLT | 60.58% | 62.28% | 60.16% | 61.25% | 47.16 ± 2.77% | 62.33 ± 184% | markedly reduced the increased activity of AChE | effect on scopolamine-increased BuChE activity in hippocampus [5]: decreased the increased BuChE activity
O=C(/C=C/c1ccc(Cl)cc1)CC(=O)/C=C/c1ccc(Cl)cc1 [Compound 1d, (1E,6E)-1,7-bis(4-chlorophenyl)hepta-1,6-diene-3,5-dione] | 113 nM | 378 nM | significantly reduced TLT | significantly reduced TLT | 63.78% | 64.61% | 61.43% | 62.03% | 55.66 ± 2.82% | 67.66 ± 2.84% | markedly reduced the increased activity of AChE | effect on scopolamine-increased BuChE activity in hippocampus [5]: decreased the increased BuChE activity
CN(C)c1ccc(/C=C/C(=O)CC(=O)/C=C/c2ccc(N(C)C)cc2)cc1 [Compound 1e, (1E,6E)-1,7-bis(4-(dimethylamino)phenyl)hepta-1,6-diene-3,5-dione] | 3270 nM | 6640 nM | non-significant | non-significant | no significant change | no significant change | no promising potential | no promising potential | non-significant | non-significant | – | –
O=C(/C=C/c1ccc([N+](=O)[O-])cc1)CC(=O)/C=C/c1ccc([N+](=O)[O-])cc1 [Compound 1f, (1E,6E)-1,7-bis(4-nitrophenyl)hepta-1,6-diene-3,5-dione] | – | – | non-significant | non-significant | no significant change | no significant change | no promising potential | no promising potential | non-significant | non-significant | – | IC50 (AChE): 5840 nM; IC50 (BuChE): 9660 nM
COc1cc2c(cc1OC)C(=O)C(CC1CCN(Cc3ccccc3)CC1)C2 (stereo not drawn) [Donepezil, reference compound] | – | – | – | – | – | – | – | – | – | – | – | transfer latency time (TLT) ([1]; donepezil 2 mg/kg p.o. 7 days, scopolamine 1 mg/kg i.p., p < 0.001 vs amnesic group): 34.57 ± 1.93 s; % DI, familiar object [2, 12]: 32.32%; % DI, novel object [2, 12]: 65.26%; time spent exploring the familiar object [2, 13]: 11.49 ± 1.39 s; time spent exploring the novel object [2, 13]: 21.59 ± 1.44 s
CN1[C@@H]2C[C@@H](OC(=O)[C@H](CO)c3ccccc3)C[C@H]1[C@@H]1O[C@@H]12 [Scopolamine] | – | – | – | – | – | – | – | – | – | – | – | TLT vs vehicle treated group ([1]; scopolamine 1 mg/kg i.p. alone (amnesic group)): significantly higher transfer latency time; % spontaneous alternation performance (% SAP) ([3]; scopolamine 1 mg/kg i.p. alone (amnesic group), normal controls 70.16 ± 4.58): 37.66 ± 3.94%
